Test system: 616215-338-R-J1-PDC complex spheroid viability
Assay: Anticancer human tumor 616215-338-R-J1-PDC patient-derived colon adenocarcinoma cell line growth inhibition [POLQ]
Conditions: for IC50: curve of first compound; for viability, T/C: stronger effect = lower value
Method: Multicellular complex tumor spheroid response to Polymerase (POL) inhibitors (novobiocin, ART-558, RP6685) in combination with a variety of drugs and investigational agents in selected tumor cell lines
The POL inhibitors (novobiocin, ART-558, and RP6685) were evaluated both individually and in combination with standard of care and investigational anticancer small molecules within a complex spheroid model of solid tumors. . Complex spheroids include a stromal component modeled by human endothelial cells (HUVEC) and fibroblasts modeled by human mesenchymal stem cells (MSCs). The concentration ranges selected for each drug and investigational agent were based upon clinically achievable concentrations if the clinical Cmax of the agent was known.
Compounds. The drugs and investigational agents: novobiocin (NSC847541), ART-558 (NSC835418), RP-6685 (NSC848927), peposertib (NSC802822), ceralasertib (NSC780249), elimusertib (NSC800525), camonsertib (NSC841442), AZD-1390 (NSC803789), olaparib (NSC753686), talazoparib (NSC767125), rucaparib (NSC756644), sotorasib (NSC818433), MRTX-1133 (NSC836407), SN-38 (NSC673596), topotecan (NSC609699), epotoside (NSC141540), doxorubicin (NSC123127), gemcitabine (NSC613327), 5-fluorouracil (NSC19893), paclitaxel (NSC125973), vemurafenib (NSC761431), MSA-2 (NSC828583), SN-011 (NSC837082), adavosertib (NSC754352), prexasertib (NSC758257), carboplatin (NSC241240) and oxaliplatin (NSC266046), were obtained from the National Cancer Institute (NCI) Developmental Therapeutics Program Chemical Repository (21). The FDA-approved anticancer drug set is available from the Developmental Therapeutics Program at https://dtp.cancer.gov/organization/dscb/obtaining/. […] The stock solutions were prepared in dimethyl sulfoxide (DMSO, Sigma-Aldrich, St. Louis, MO, cat. D2650), except for the platinum compounds which were prepared in saline (Quality Biological, Gaithersburg, MD, cat. 114-055-101), at 800-fold the tested concentration and stored at -70 degrees C prior to their use. All drugs and investigational agents were tested over a range starting from a high concentration at or near the clinical Cmax and decreasing in half-log increments. If the clinical Cmax for an agent had not been determined, the highest concentration tested was 10 microM, except for SN-38, which was tested at a high concentration of 1 microM.
Cell Culture. All cells were maintained in an incubator at 37 degrees C and 5% CO2 with 95% humidity. The PDC lines were cultured according to standard operating procedures established by the NCI PDMR (https://pdmr.cancer.gov). Table 3 of the manuscript, lists the cell lines along with the number of the three cell types plated to form the mct-spheroids and media for tumor cell growth. After thawing, all PDC lines, except 997537-175-T-J1-PDC and 415267-285-R-J2-PDC, were cultured in Matrigel-coated flasks prepared with a working solution of 1X Ham's F-12 nutrient mix, without supplementation (Thermo Fisher Scientific, cat. 11765054), 100 U/mL penicillin-streptomycin (Thermo Fisher Scientific, cat. 15140122), and 2.5% Matrigel (Corning Inc., Corning, NY, cat. 354248) for the first three passages. The two PDC lines 997537-175-T-J1-PDC and 415267-285-R-J2-PDC were cultured on uncoated flasks. The 857933-349-R-J2-PDC line was cultured in 6C/Colon 1B media containing advanced DMEM/F-12 (Thermo Fisher Scientific, cat. 12634028), 10 mM HEPES (Thermo Fisher Scientific, cat. 15630080), 1X GlutaMAX supplement (Thermo Fisher Scientific, cat. 35050061), 0.1 mg/mL primocin (InvivoGen, San Diego, CA, cat. ant-pm-2), 10% defined fetal bovine serum, heat inactivated (HyClone Laboratories Inc., Logan, UT, cat. SH30070.03HI), 50% L-WRN conditioned media (ATCC, cat. CRL-3276), 1.25 mM N-Acetyl-L-cysteine (Sigma-Aldrich, cat. A9165), 10 mM nicotinamide (Sigma-Aldrich, cat. N0636), 1X B-27 supplement (Thermo Fisher Scientific, cat. 17504044), 1X N-2 supplement (Thermo Fisher Scientific, cat. […]

[1] = second compound 0.0316 µM, first compound 0.0316 µM
[2] = second compound 0.0316 µM, first compound 0.1 µM
[3] = second compound 0.0316 µM, first compound 0.316 µM
[4] = second compound 0.0316 µM, first compound 1 µM
[5] = second compound 0.1 µM, first compound 0.0316 µM
[6] = second compound 0.1 µM, first compound 0.1 µM
[7] = second compound 0.1 µM, first compound 0.316 µM
[8] = second compound 0.1 µM, first compound 1 µM
[9] = second compound 0.316 µM, first compound 0.0316 µM
[10] = second compound 0.316 µM, first compound 0.1 µM
[11] = second compound 0.316 µM, first compound 0.316 µM
[12] = second compound 0.316 µM, first compound 1 µM
[13] = second compound 1 µM, first compound 0.0316 µM
[14] = second compound 1 µM, first compound 0.1 µM
[15] = second compound 1 µM, first compound 0.316 µM
[16] = second compound 1 µM, first compound 1 µM
[17] = second compound 3.16 µM, first compound 0.0316 µM
[18] = second compound 3.16 µM, first compound 0.1 µM
[19] = second compound 3.16 µM, first compound 0.316 µM
[20] = second compound 3.16 µM, first compound 1 µM
[21] = second compound 10 µM, first compound 0.0316 µM
[22] = second compound 10 µM, first compound 0.1 µM
[23] = second compound 10 µM, first compound 0.316 µM
[24] = second compound 10 µM, first compound 1 µM
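Note: spheroids exposed to compounds for one week before readout.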
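Throughout, for viability, T/C: percent viability relative to DMSO vehicle wells taken as 100%.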

## COc1cccc2c1C(=O)c1c(O)c3c(c(O)c1C2=O)CC(O)(C(=O)CO)CC3OC1CC(N)C(O)C(C)O1 (centres undefined) + Nc1ccc(C#CCN(C(=O)Cc2ncc(C(F)(F)F)cc2C(F)(F)F)c2ccc(F)cc2)nn1
Second compound 0.0316 µM
  IC50: 124 nM
Second compound 0.1 µM
  IC50: < 31.6 nM
Second compound 0.316 µM
  IC50: 89.2 nM
Second compound 1 µM
  IC50: 79.2 nM
Second compound 3.16 µM
  IC50: 58.4 nM
Second compound 10 µM
  IC50: < 31.6 nM
[1]
  viability, T/C: 53.5%
[2]
  viability, T/C: 50.3%
[3]
  viability, T/C: 43.8%
[4]
  viability, T/C: 20.9%
Second compound 0.0316 µM, first compound 3.16 µM
  viability, T/C: 1.47%
Second compound 0.0316 µM, first compound 10 µM
  viability, T/C: 1.5%
[5]
  viability, T/C: 52%
[6]
  viability, T/C: 46.5%
[7]
  viability, T/C: 42.4%
[8]
  viability, T/C: 26.1%
Second compound 0.1 µM, first compound 3.16 µM
  viability, T/C: 1.84%
Second compound 0.1 µM, first compound 10 µM
  viability, T/C: 0.12%
[9]
  viability, T/C: 61.7%
[10]
  viability, T/C: 41.8%
[11]
  viability, T/C: 40.4%
[12]
  viability, T/C: 22.4%
Second compound 0.316 µM, first compound 3.16 µM
  viability, T/C: 0.9%
Second compound 0.316 µM, first compound 10 µM
  viability, T/C: 0.55%
[13]
  viability, T/C: 65.2%
[14]
  viability, T/C: 40.4%
[15]
  viability, T/C: 35.9%
[16]
  viability, T/C: 23.1%
Second compound 1 µM, first compound 3.16 µM
  viability, T/C: 2.85%
Second compound 1 µM, first compound 10 µM
  viability, T/C: 0.37%
[17]
  viability, T/C: 52.8%
[18]
  viability, T/C: 48%
[19]
  viability, T/C: 35.2%
[20]
  viability, T/C: 23.5%
Second compound 3.16 µM, first compound 3.16 µM
  viability, T/C: 1.29%
Second compound 3.16 µM, first compound 10 µM
  viability, T/C: 0.18%
[21]
  viability, T/C: 46.3%
[22]
  viability, T/C: 38.1%
[23]
  viability, T/C: 27.4%
[24]
  viability, T/C: 14.9%
Second compound 10 µM, first compound 3.16 µM
  viability, T/C: 0.84%
Second compound 10 µM, first compound 10 µM
  viability, T/C: 0.33%

## COc1cccc(OCCCN)c1-c1cc(Nc2cnc(C#N)cn2)n[nH]1 + Nc1ccc(C#CCN(C(=O)Cc2ncc(C(F)(F)F)cc2C(F)(F)F)c2ccc(F)cc2)nn1
Second compound 0.0316 µM
  IC50: 136 nM
Second compound 0.1 µM
  IC50: 78.7 nM
Second compound 0.316 µM
  IC50: 75.9 nM
Second compound 1 µM
  IC50: 52.7 nM
Second compound 3.16 µM
  IC50: 66.1 nM
Second compound 10 µM
  IC50: 39 nM
Second compound 0.0316 µM, first compound 0.00316 µM
  viability, T/C: 109%
Second compound 0.0316 µM, first compound 0.01 µM
  viability, T/C: 84.9%
[1]
  viability, T/C: 91.2%
[2]
  viability, T/C: 53.8%
[3]
  viability, T/C: 36.9%
[4]
  viability, T/C: 33.1%
Second compound 0.1 µM, first compound 0.00316 µM
  viability, T/C: 101%
Second compound 0.1 µM, first compound 0.01 µM
  viability, T/C: 102%
[5]
  viability, T/C: 77.3%
[6]
  viability, T/C: 43%
[7]
  viability, T/C: 42.6%
[8]
  viability, T/C: 36%
Second compound 0.316 µM, first compound 0.00316 µM
  viability, T/C: 98.9%
Second compound 0.316 µM, first compound 0.01 µM
  viability, T/C: 97.2%
[9]
  viability, T/C: 71.2%
[10]
  viability, T/C: 43.3%
[11]
  viability, T/C: 42.4%
[12]
  viability, T/C: 34.7%
Second compound 1 µM, first compound 0.00316 µM
  viability, T/C: 97.5%
Second compound 1 µM, first compound 0.01 µM
  viability, T/C: 96.6%
[13]
  viability, T/C: 60.3%
[14]
  viability, T/C: 38.6%
[15]
  viability, T/C: 38%
[16]
  viability, T/C: 29.4%
Second compound 3.16 µM, first compound 0.00316 µM
  viability, T/C: 103%
Second compound 3.16 µM, first compound 0.01 µM
  viability, T/C: 90.3%
[17]
  viability, T/C: 72.7%
[18]
  viability, T/C: 35.7%
[19]
  viability, T/C: 32.9%
[20]
  viability, T/C: 29.7%
Second compound 10 µM, first compound 0.00316 µM
  viability, T/C: 91.7%
Second compound 10 µM, first compound 0.01 µM
  viability, T/C: 69.3%
[21]
  viability, T/C: 50.2%
[22]
  viability, T/C: 41.2%
[23]
  viability, T/C: 34.4%
[24]
  viability, T/C: 24%
